Measurements published in US6358885B1, “Substituted phenylheterocyclic herbicides” (Mississippi State University, priority 1992, dated 2002).

How the values were obtained:
Assay in all cases: Test B preemergence/postemergence greenhouse plant response rating 0 to 10
soybean = type: in vivo, Glycine max; conditions: for Plant response rating, Soybean: 0 to 10 scale
In short: (§1)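 Postemergence treatment of plants two to eighteen cm tall ran alongside preemergence treatment of planted seed, each using compound in a non-phytotoxic solvent.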

crabgrass = type: in vivo, Digitaria spp.; conditions: for Plant response rating, Crabgrass: 0 to 10 scale
In short: as §1

wild buckwheat = type: in vivo, Polygonum convolvulus; conditions: for Plant response rating, Wild buckwheat: 0 to 10 scale
In short: as §1

giant foxtail = type: in vivo, Setaria faberii; conditions: for Plant response rating, Giant foxtail: 0 to 10 scale
In short: as §1

sugar beet = type: in vivo, Beta vulgaris; conditions: for Plant response rating, Sugar beet: 0 to 10 scale
In short: as §1

velvetleaf = type: in vivo, Abutilon theophrasti; conditions: for Plant response rating, Velvetleaf: 0 to 10 scale
In short: as §1

sorghum = type: in vivo, Sorghum bicolor; conditions: for Plant response rating, Sorghum: 0 to 10 scale
In short: as §1

rice = type: in vivo, Oryza sativa; conditions: for Plant response rating, Rice: 0 to 10 scale
In short: as §1

barley = type: in vivo, Hordeum vulgare; conditions: for Plant response rating, Barley: 0 to 10 scale
In short: as §1

lambsquarters = type: in vivo, Chenopodium album; conditions: for Plant response rating, Lambsquarter: 0 to 10 scale
In short: as §1

barnyardgrass = type: in vivo, Echinochloa crus-galli; conditions: for Plant response rating, Barnyardgrass: 0 to 10 scale
In short: as §1

cheatgrass = type: in vivo, Bromus secalinus; conditions: for Plant response rating, Cheatgrass: 0 to 10 scale
In short: as §1

morningglory = type: in vivo, Ipomoea hederacea; conditions: for Plant response rating, Morningglory: 0 to 10 scale
In short: as §1

cotton = type: in vivo, Gossypium hirsutum; conditions: for Plant response rating, Cotton: 0 to 10 scale
In short: as §1

blackgrass = type: in vivo, Alopecurus myosuroides; conditions: for Plant response rating, Blackgrass: 0 to 10 scale
In short: as §1

purple nutsedge = type: in vivo, Cyperus rotundus; conditions: for Plant response rating, Nutsedge: 0 to 10 scale
In short: as §1

wild oat = type: in vivo, Avena fatua; conditions: for Plant response rating, Wild oat: 0 to 10 scale
In short: as §1

corn = type: in vivo, Zea mays; conditions: for Plant response rating, Corn: 0 to 10 scale
In short: as §1

wheat = type: in vivo, Triticum aestivum; conditions: for Plant response rating, Wheat: 0 to 10 scale
In short: as §1

cocklebur = type: in vivo, Xanthium pensylvanicum; conditions: for Plant response rating, Cocklebur: 0 to 10 scale
In short: as §1

bedstraw = type: in vivo, Galium aparine; conditions: for Plant response rating, Bedstraw: 0 to 10 scale
In short: as §1

chickweed = type: in vivo, Stellaria media; conditions: for Plant response rating, Chickweed: 0 to 10 scale
In short: as §1

rape = type: in vivo, Brassica napus; conditions: for Plant response rating, Rape: 0 to 10 scale
In short: as §1

CCOC(=O)COc1cc(-c2nn3c(c2Cl)CCCC3)c(Cl)cc1Cl [Compound 73]
Plant response rating, Soybean (soybean; POSTEMERGENCE, Rate 50 g/ha): 2
Plant response rating, Soybean (soybean; PREEMERGENCE, Rate 50 g/ha): 0
Plant response rating (0 to 10 scale), Soybean (soybean; PREEMERGENCE, Rate 200 g/ha): 0
Plant response rating, Soybean (soybean; Rate 200 g/ha, POSTEMERGENCE): 5
Plant response rating, Crabgrass (crabgrass; POSTEMERGENCE, Rate 50 g/ha): 3
Plant response rating, Crabgrass (crabgrass; PREEMERGENCE, Rate 50 g/ha): 0
Plant response rating (0 to 10 scale), Crabgrass (crabgrass; PREEMERGENCE, Rate 200 g/ha): 0
Plant response rating, Crabgrass (crabgrass; Rate 200 g/ha, POSTEMERGENCE): 6
Plant response rating, Wild buckwheat (wild buckwheat; POSTEMERGENCE, Rate 50 g/ha): 10
Plant response rating, Wild buckwheat (wild buckwheat; PREEMERGENCE, Rate 50 g/ha): 0
Plant response rating (0 to 10 scale), Wild buckwheat (wild buckwheat; PREEMERGENCE, Rate 200 g/ha): 3
Plant response rating, Wild buckwheat (wild buckwheat; Rate 200 g/ha, POSTEMERGENCE): 10
Plant response rating, Giant foxtail (giant foxtail; POSTEMERGENCE, Rate 50 g/ha): 5
Plant response rating, Giant foxtail (giant foxtail; PREEMERGENCE, Rate 50 g/ha): 0
Plant response rating (0 to 10 scale), Giant foxtail (giant foxtail; PREEMERGENCE, Rate 200 g/ha): 0
Plant response rating, Giant foxtail (giant foxtail; Rate 200 g/ha, POSTEMERGENCE): 5
Plant response rating, Sugar beet (sugar beet; POSTEMERGENCE, Rate 50 g/ha): 10
Plant response rating, Sugar beet (sugar beet; PREEMERGENCE, Rate 50 g/ha): 5
Plant response rating (0 to 10 scale), Sugar beet (sugar beet; PREEMERGENCE, Rate 200 g/ha): 5
Plant response rating, Sugar beet (sugar beet; Rate 200 g/ha, POSTEMERGENCE): 10
Plant response rating, Velvetleaf (velvetleaf; POSTEMERGENCE, Rate 50 g/ha): 6
Plant response rating, Velvetleaf (velvetleaf; PREEMERGENCE, Rate 50 g/ha): 2
Plant response rating (0 to 10 scale), Velvetleaf (velvetleaf; PREEMERGENCE, Rate 200 g/ha): 7
Plant response rating, Velvetleaf (velvetleaf; Rate 200 g/ha, POSTEMERGENCE): 9
Plant response rating, Sorghum (sorghum; POSTEMERGENCE, Rate 50 g/ha): 4
Plant response rating, Sorghum (sorghum; PREEMERGENCE, Rate 50 g/ha): 0
Plant response rating (0 to 10 scale), Sorghum (sorghum; PREEMERGENCE, Rate 200 g/ha): 0
Plant response rating, Sorghum (sorghum; Rate 200 g/ha, POSTEMERGENCE): 5
Plant response rating, Rice (rice; POSTEMERGENCE, Rate 50 g/ha): 6
Plant response rating, Rice (rice; PREEMERGENCE, Rate 50 g/ha): 0
Plant response rating (0 to 10 scale), Rice (rice; PREEMERGENCE, Rate 200 g/ha): 0
Plant response rating, Rice (rice; Rate 200 g/ha, POSTEMERGENCE): 6
Plant response rating, Barley (barley; POSTEMERGENCE, Rate 50 g/ha): 2
Plant response rating, Barley (barley; PREEMERGENCE, Rate 50 g/ha): 0
Plant response rating (0 to 10 scale), Barley (barley; PREEMERGENCE, Rate 200 g/ha): 0
Plant response rating, Barley (barley; Rate 200 g/ha, POSTEMERGENCE): 3
Plant response rating, Lambsquarter (lambsquarters; POSTEMERGENCE, Rate 50 g/ha): 9
Plant response rating, Lambsquarter (lambsquarters; PREEMERGENCE, Rate 50 g/ha): 9
Plant response rating (0 to 10 scale), Lambsquarter (lambsquarters; PREEMERGENCE, Rate 200 g/ha): 10
Plant response rating, Lambsquarter (lambsquarters; Rate 200 g/ha, POSTEMERGENCE): 10
Plant response rating, Barnyardgrass (barnyardgrass; POSTEMERGENCE, Rate 50 g/ha): 7
Plant response rating, Barnyardgrass (barnyardgrass; PREEMERGENCE, Rate 50 g/ha): 0
Plant response rating (0 to 10 scale), Barnyardgrass (barnyardgrass; PREEMERGENCE, Rate 200 g/ha): 0
Plant response rating, Barnyardgrass (barnyardgrass; Rate 200 g/ha, POSTEMERGENCE): 9
Plant response rating, Cheatgrass (cheatgrass; POSTEMERGENCE, Rate 50 g/ha): 3
Plant response rating, Cheatgrass (cheatgrass; PREEMERGENCE, Rate 50 g/ha): 0
Plant response rating (0 to 10 scale), Cheatgrass (cheatgrass; PREEMERGENCE, Rate 200 g/ha): 2
Plant response rating, Cheatgrass (cheatgrass; Rate 200 g/ha, POSTEMERGENCE): 6
Plant response rating, Morningglory (morningglory; POSTEMERGENCE, Rate 50 g/ha): 10
Plant response rating, Morningglory (morningglory; PREEMERGENCE, Rate 50 g/ha): 0
Plant response rating (0 to 10 scale), Morningglory (morningglory; PREEMERGENCE, Rate 200 g/ha): 0
Plant response rating, Morningglory (morningglory; Rate 200 g/ha, POSTEMERGENCE): 9
Plant response rating, Cotton (cotton; POSTEMERGENCE, Rate 50 g/ha): 10
Plant response rating, Cotton (cotton; PREEMERGENCE, Rate 50 g/ha): 0
Plant response rating (0 to 10 scale), Cotton (cotton; PREEMERGENCE, Rate 200 g/ha): 0
Plant response rating, Cotton (cotton; Rate 200 g/ha, POSTEMERGENCE): 10
Plant response rating, Blackgrass (blackgrass; POSTEMERGENCE, Rate 50 g/ha): 5
Plant response rating, Blackgrass (blackgrass; PREEMERGENCE, Rate 50 g/ha): 0
Plant response rating (0 to 10 scale), Blackgrass (blackgrass; PREEMERGENCE, Rate 200 g/ha): 0
Plant response rating, Blackgrass (blackgrass; Rate 200 g/ha, POSTEMERGENCE): 5
Plant response rating, Nutsedge (purple nutsedge; POSTEMERGENCE, Rate 50 g/ha): 2
Plant response rating, Nutsedge (purple nutsedge; PREEMERGENCE, Rate 50 g/ha): 0
Plant response rating (0 to 10 scale), Nutsedge (purple nutsedge; PREEMERGENCE, Rate 200 g/ha): 0
Plant response rating, Nutsedge (purple nutsedge; Rate 200 g/ha, POSTEMERGENCE): 3
Plant response rating, Wild oat (wild oat; POSTEMERGENCE, Rate 50 g/ha): 1
Plant response rating, Wild oat (wild oat; PREEMERGENCE, Rate 50 g/ha): 0
Plant response rating (0 to 10 scale), Wild oat (wild oat; PREEMERGENCE, Rate 200 g/ha): 2
Plant response rating, Wild oat (wild oat; Rate 200 g/ha, POSTEMERGENCE): 1
Plant response rating, Corn (corn; POSTEMERGENCE, Rate 50 g/ha): 5
Plant response rating, Corn (corn; PREEMERGENCE, Rate 50 g/ha): 0
Plant response rating (0 to 10 scale), Corn (corn; PREEMERGENCE, Rate 200 g/ha): 0
Plant response rating, Corn (corn; Rate 200 g/ha, POSTEMERGENCE): 8
Plant response rating, Wheat (wheat; POSTEMERGENCE, Rate 50 g/ha): 2
Plant response rating, Wheat (wheat; PREEMERGENCE, Rate 50 g/ha): 0
Plant response rating (0 to 10 scale), Wheat (wheat; PREEMERGENCE, Rate 200 g/ha): 2
Plant response rating, Wheat (wheat; Rate 200 g/ha, POSTEMERGENCE): 4
Plant response rating, Cocklebur (cocklebur; POSTEMERGENCE, Rate 50 g/ha): 8
Plant response rating, Cocklebur (cocklebur; PREEMERGENCE, Rate 50 g/ha): 0
Plant response rating (0 to 10 scale), Cocklebur (cocklebur; PREEMERGENCE, Rate 200 g/ha): 0
Plant response rating, Cocklebur (cocklebur; Rate 200 g/ha, POSTEMERGENCE): 10
Plant response rating, Bedstraw (bedstraw; POSTEMERGENCE, Rate 50 g/ha): 7
Plant response rating, Bedstraw (bedstraw; PREEMERGENCE, Rate 50 g/ha): 2
Plant response rating (0 to 10 scale), Bedstraw (bedstraw; PREEMERGENCE, Rate 200 g/ha): 9
Plant response rating, Bedstraw (bedstraw; Rate 200 g/ha, POSTEMERGENCE): 8
Plant response rating, Chickweed (chickweed; POSTEMERGENCE, Rate 50 g/ha): 2
Plant response rating, Chickweed (chickweed; PREEMERGENCE, Rate 50 g/ha): 2
Plant response rating (0 to 10 scale), Chickweed (chickweed; PREEMERGENCE, Rate 200 g/ha): 4
Plant response rating, Chickweed (chickweed; Rate 200 g/ha, POSTEMERGENCE): 3
Plant response rating, Rape (rape; POSTEMERGENCE, Rate 50 g/ha): 7
Plant response rating, Rape (rape; PREEMERGENCE, Rate 50 g/ha): 2
Plant response rating (0 to 10 scale), Rape (rape; PREEMERGENCE, Rate 200 g/ha): 2
Plant response rating, Rape (rape; Rate 200 g/ha, POSTEMERGENCE): 10
